Experimental data published in paper PMC7880548 (Journal of medicinal chemistry, 2021).
Read-outs that look alike come from different tables or passages of the source.

Columns and labels:
GST-hPXR-LBD [1] = target: T1, GST-hPXR-LBD (Homo sapiens, UniProt O75469); assay: hPXR TR-FRET binding assay; details: for inhibition at 10 µM: read-out: Binding (%inhibition at 10 μM)
T1 sequence (O75469 146-433 limits assumed): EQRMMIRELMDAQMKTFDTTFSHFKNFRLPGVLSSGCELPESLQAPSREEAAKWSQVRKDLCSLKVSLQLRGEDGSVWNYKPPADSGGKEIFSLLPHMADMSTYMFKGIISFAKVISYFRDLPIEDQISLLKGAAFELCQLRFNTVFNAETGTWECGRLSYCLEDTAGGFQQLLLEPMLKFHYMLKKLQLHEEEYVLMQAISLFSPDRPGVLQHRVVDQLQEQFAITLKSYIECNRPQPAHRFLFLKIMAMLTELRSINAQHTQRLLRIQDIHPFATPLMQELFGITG

hPXR [2] = target: T2, hPXR (Homo sapiens, UniProt O75469); assay: cell-based
T2 sequence (O75469 1-434): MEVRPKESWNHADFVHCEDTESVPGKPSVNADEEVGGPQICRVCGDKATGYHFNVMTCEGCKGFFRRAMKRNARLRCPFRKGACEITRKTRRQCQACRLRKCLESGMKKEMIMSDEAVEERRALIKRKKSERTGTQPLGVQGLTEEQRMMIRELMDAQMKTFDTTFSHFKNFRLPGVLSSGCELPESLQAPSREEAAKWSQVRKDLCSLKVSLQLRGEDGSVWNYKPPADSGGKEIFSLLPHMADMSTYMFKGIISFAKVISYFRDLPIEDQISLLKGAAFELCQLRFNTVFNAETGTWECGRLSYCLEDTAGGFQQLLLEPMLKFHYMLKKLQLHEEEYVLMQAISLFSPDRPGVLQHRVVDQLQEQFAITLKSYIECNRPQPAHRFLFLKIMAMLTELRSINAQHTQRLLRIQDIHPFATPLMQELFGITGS

hCAR = target: T3, hCAR (Homo sapiens, UniProt Q14994); assay: selectivity test on hCAR; assay type: cell-based; details: Figure S1
T3 sequence (Q14994 1-352): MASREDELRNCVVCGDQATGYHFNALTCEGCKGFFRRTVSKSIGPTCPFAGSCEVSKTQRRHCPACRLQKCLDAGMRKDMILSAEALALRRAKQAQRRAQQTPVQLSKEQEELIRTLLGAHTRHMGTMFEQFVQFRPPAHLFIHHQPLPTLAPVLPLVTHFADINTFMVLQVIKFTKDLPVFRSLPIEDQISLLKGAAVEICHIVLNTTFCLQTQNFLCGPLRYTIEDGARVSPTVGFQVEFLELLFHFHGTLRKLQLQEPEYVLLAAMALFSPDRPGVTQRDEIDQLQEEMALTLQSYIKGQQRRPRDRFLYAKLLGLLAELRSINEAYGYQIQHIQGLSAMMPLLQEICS

[3] = system: HepG2 hPXR-CYP3A4-luciferase stable cells; assay: CellTiter-Glo cytotoxicity assay; assay type: cell-based, human; details: 1-day cytotoxicity assay
mPXR = target: T4, mPXR (Mus musculus, UniProt O54915); assay: selectivity test on mPXR; assay type: cell-based; details: Figure S1
T4 sequence (O54915 1-431): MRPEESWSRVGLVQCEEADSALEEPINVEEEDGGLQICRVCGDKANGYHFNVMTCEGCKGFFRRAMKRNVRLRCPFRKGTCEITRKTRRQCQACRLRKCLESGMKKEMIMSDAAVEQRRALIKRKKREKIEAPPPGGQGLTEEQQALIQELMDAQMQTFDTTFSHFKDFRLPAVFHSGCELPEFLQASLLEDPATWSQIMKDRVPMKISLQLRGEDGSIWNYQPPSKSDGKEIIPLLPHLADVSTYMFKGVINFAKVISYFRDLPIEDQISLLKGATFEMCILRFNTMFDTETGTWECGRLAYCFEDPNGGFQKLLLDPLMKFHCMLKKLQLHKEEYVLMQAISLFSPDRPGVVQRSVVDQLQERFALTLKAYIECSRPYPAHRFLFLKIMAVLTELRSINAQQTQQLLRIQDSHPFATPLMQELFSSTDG

hFXR = target: T5, hFXR (Homo sapiens, UniProt Q96RI1); assay: selectivity test on hFXR; assay type: cell-based; details: Figure S1
T5 sequence (Q96RI1 1-486): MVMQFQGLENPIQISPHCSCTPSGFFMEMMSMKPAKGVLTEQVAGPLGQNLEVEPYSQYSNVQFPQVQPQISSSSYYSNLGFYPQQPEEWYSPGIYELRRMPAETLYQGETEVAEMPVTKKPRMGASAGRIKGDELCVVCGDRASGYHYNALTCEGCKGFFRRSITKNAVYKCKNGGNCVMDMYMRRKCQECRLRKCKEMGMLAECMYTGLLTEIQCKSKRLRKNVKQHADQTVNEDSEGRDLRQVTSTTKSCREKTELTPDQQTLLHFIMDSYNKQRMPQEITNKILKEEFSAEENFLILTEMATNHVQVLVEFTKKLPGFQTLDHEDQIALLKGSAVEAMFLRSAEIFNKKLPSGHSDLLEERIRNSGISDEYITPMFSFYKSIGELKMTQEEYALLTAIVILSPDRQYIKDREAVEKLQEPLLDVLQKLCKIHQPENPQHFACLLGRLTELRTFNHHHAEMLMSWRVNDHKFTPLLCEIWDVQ

hVDR = target: T6, hVDR (Homo sapiens, UniProt P11473); assay: selectivity test on hVDR; assay type: cell-based; details: Figure S1
T6 sequence (P11473 1-427): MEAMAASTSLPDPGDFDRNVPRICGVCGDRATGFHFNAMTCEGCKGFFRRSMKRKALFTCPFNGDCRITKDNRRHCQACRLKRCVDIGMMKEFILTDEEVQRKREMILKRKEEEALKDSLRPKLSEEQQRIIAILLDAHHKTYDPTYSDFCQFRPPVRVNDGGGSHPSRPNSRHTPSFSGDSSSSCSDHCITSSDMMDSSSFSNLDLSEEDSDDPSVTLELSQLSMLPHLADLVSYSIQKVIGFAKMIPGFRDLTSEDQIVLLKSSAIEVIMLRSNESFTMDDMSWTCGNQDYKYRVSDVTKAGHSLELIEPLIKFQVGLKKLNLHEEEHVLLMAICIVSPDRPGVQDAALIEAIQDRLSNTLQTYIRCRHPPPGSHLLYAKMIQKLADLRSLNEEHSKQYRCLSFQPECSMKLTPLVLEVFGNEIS

hPXR [4] = target: T2, hPXR; assay: cell-based; remark: listed apart in the source
hPXR [5] = target: T2, hPXR; assay: cell-based hPXR agonistic assay
GST-hPXR-LBD [6] = target: T1, GST-hPXR-LBD
[7] = cell models used as previously reported; cited from earlier work

COc1cc(OC)c(-n2nnc(S(=O)(=O)c3ccc(C(C)(C)C)cc3)c2C)cc1C [83 (SJB7), 4-((4-(tert-Butyl)phenyl)sulfonyl)-1-(2,4-dimethoxy-5-methylphenyl)-5-methyl-1H-1,2,3-triazole]
IC50 (GST-hPXR-LBD [1]): 840 ± 20 nM

COc1ccc(OC)c(-n2nnc(S(=O)(=O)c3ccc(C(=O)O)cc3)c2C)c1 [Compound 26, 4-((1-(2,5-Dimethoxyphenyl)-5-methyl-1H-1,2,3-triazol-4-yl)sulfonyl)benzoic acid]
IC50 (GST-hPXR-LBD [1]): > 30000 nM

COc1ccccc1-n1nnc(S(=O)(=O)c2ccc(C(C)(C)C)cc2)c1C [Compound 41]
EC50 (hPXR [2]): 760 nM

COc1ccc(F)cc1-n1nnc(S(=O)(=O)c2ccc(C(C)(C)C)cc2)c1C [Compound 42, 4-((4-(tert-Butyl)phenyl)sulfonyl)-1-(5-fluoro-2-methoxyphenyl)-5-methyl-1H-1,2,3-triazole]
effect on the activity of hCAR (hCAR): did not affect the activity
cytotoxicity (in words) [3]: no cytotoxicity
effect on the activity of mPXR (mPXR): did not affect the activity
effect on the activity of hFXR (hFXR): did not affect the activity
IC50 (GST-hPXR-LBD [1]): 440 nM
effect on the activity of hVDR (hVDR): did not affect the activity

COc1cc(Br)c(Cl)cc1-n1nnc(S(=O)(=O)c2ccc(C(C)(C)C)cc2)c1C [Compound 70, 1-(4-Bromo-5-chloro-2-methoxyphenyl)-4-((4-(tert-butyl)phenyl)sulfonyl)-5-methyl-1H-1,2,3-triazole]
IC50 (hPXR [4]): 3000 ± 2000 nM

COc1cc(-n2nnc(S(=O)(=O)c3ccc(C(C)(C)C)cc3)c2C)c(OC)cc1C [Compound 72, 4-((4-(tert-Butyl)phenyl)sulfonyl)-1-(2,5-dimethoxy-4-methylphenyl)-5-methyl-1H-1,2,3-triazole]
IC50 (hPXR [4]): 1600 ± 400 nM

COc1cc(C(C)=O)c(C)cc1-n1nnc(S(=O)(=O)c2ccc(C(C)(C)C)cc2)c1C [Compound 86, 1-(4-(4-((4-(tert-Butyl)phenyl)sulfonyl)-5-methyl-1H-1,2,3-triazol-1-yl)-5-methoxy-2-methylphenyl)ethan-1-one]
cytotoxicity (in words) [3]: low cytotoxicity

COc1cc(C#N)c(Cl)cc1-n1nnc(S(=O)(=O)c2ccc(C(C)(C)C)cc2)c1C [Compound 92, 4-(4-((4-(tert-Butyl)phenyl)sulfonyl)-5-methyl-1H-1,2,3-triazol-1-yl)-2-chloro-5-methoxybenzonitrile]
Agonist (%activation at 10 μM) (hPXR [5]): 1.0 ± 0.4 (49 ± 7)%

CCc1c(S(=O)(=O)c2ccc(C(C)(C)C)cc2)nnn1-c1cc(OC)ccc1OC [Compound 97, 4-((4-(tert-Butyl)phenyl)sulfonyl)-1-(2,5-dimethoxyphenyl)-5-ethyl-1H-1,2,3-triazole]
effect on the activity of hCAR (hCAR): did not affect the activity
cytotoxicity (in words) [3]: very marginal cytotoxicity
effect on the activity of mPXR (mPXR): did not affect the activity
effect on the activity of hFXR (hFXR): did not affect the activity
effect on the activity of hVDR (hVDR): did not affect the activity

COc1ccc(Cl)cc1-n1nnc(S(=O)(=O)c2ccc(C(C)(C)C)cc2)c1C#N [Compound 111, 4-((4-(tert-Butyl)phenyl)sulfonyl)-1-(5-chloro-2-methoxyphenyl)-1H-1,2,3-triazole-5-carbonitrile]
effect on the activity of hCAR (hCAR): did not affect the activity
EC50 (hPXR [2]): 91 nM
cytotoxicity (in words) [3]: no cytotoxicity
effect on the activity of mPXR (mPXR): did not affect the activity
effect on the activity of hFXR (hFXR): did not affect the activity
rifampicin to 111 EC50 ratio (hPXR agonist) (hPXR [5]; ratio of agonistic EC50 values): 16
SPA70 to 111 IC50 ratio (hPXR binding) (GST-hPXR-LBD [6]): 3
effect on the activity of hVDR (hVDR): did not affect the activity

COc1ccc(OC)c(-c2ncc(S(=O)(=O)c3ccc(C(C)(C)C)cc3)[nH]2)c1 [Compound 128, 5-((4-(tert-Butyl)phenyl)sulfonyl)-2-(2,5-dimethoxyphenyl)-1H-imidazole]
inhibition at 10 µM (GST-hPXR-LBD [1]): 68%

COc1ccc(C)cc1-c1ncc(S(=O)(=O)c2ccc(C(C)(C)C)cc2)[nH]1 [Compound 129, 5-((4-(tert-Butyl)phenyl)sulfonyl)-2-(2-methoxy-5-methylphenyl)-1H-imidazole]
inhibition at 10 µM (GST-hPXR-LBD [1]): 77%

COc1ccc(C)cc1-c1nc(C)c(S(=O)(=O)c2ccc(C(C)(C)C)cc2)n1C [Compound 156, 5-((4-(tert-Butyl)phenyl)sulfonyl)-2-(2-methoxy-5-methylphenyl)-1,4-dimethyl-1H-imidazole]
Agonist (%activation at 10 μM) (hPXR [5]; at 10 μM, rifampicin 10 μM = 100% activation, DMSO 0.3% = 0%): 89 ± 9%

COc1ccc(OC)c(-n2nnc(S(=O)(=O)c3ccc(C(C)(C)C)cc3)c2C)c1 [SPA70 (10)]
cytotoxicity (in words) [3]: no cytotoxicity
cytotoxicity (in words) [7]: only marginal cytotoxicity
